How the values were obtained:
Format in all cases: cell-based
human pulp cells = test: Wound-healing model of human pulp cells (scratch); settings: LPS only, 24 hours after scratch
Procedure: Human pulp cells were inoculated in a 6-well plate at 1×10^5 cells/well, and the next day, the central portion was scratched with the tip of a 200 μL pipette, and the rate of cell growth was compared 24 hours later.
(§1) All experiments using human pulp cells were approved by the Institutional Review Board (IRB; S-D20140007) of the Seoul National University Dental Hospital and conducted in accordance with the guidelines and regulations of the institution. The third molars (wisdom teeth) were extracted from patients who signed the consent forms at the Seoul National University Dental Hospital, and pulp cells were isolated using a previously reported method (Choung et al., 2016). The teeth were cut open, the internal pulp was separated using forceps, and the pulp tissue was finely minced into 60-mm diameter cell culture dishes. The finely minced pulp tissue was then covered with a cover glass and cultured in a cell culture medium to isolate human pulp cells. […]
Cell photographs were taken using an optical microscope using a 10× objective lens, and the photographs were analyzed using the ImageJ software program.

human dental pulp cells [1] = test: Expression of inflammatory factors (RT-PCR) in LPS-treated human dental pulp cells; settings: 10 μg/mL LPS only
Procedure: To confirm the preventive and therapeutic effects of a pharmaceutical composition (KH002) in stage 4 dental caries in which inflammation occurred after cells are affected by dental caries, human dental pulp cells were treated with lipopolysaccharide (LPS) and the pharmaceutical composition (KH002), and the expression of inflammatory factors was compared.
as §1, with “dishes.” for “dishes. The finely minced pulp tissue was then covered with a cover glass and cultured in a cell culture medium to isolate human pulp cells.”
A reverse transcription polymerase chain reaction (RT-PCR) was performed to compare the expression of inflammatory factors, and the ratio of the expression level of each factor to the expression level of glyceraldehyde 3-phosphate dehydrogenase (GAPDH) was confirmed for quantitative comparison (FIG. 3).

human dental pulp cells [2] = test: Viability of human dental pulp cells in inflammatory environment (MTT); settings: 10 μg/mL LPS alone, vs negative control
Procedure: To measure the cell viability, human dental pulp cells were inoculated in a 96-well plate at 5×10^3 cells/well and treated with 150 μL of a 3-(4,5-dimethyl-2-thiazolyl)-2,5-diphenyl-tetrazolium bromide (MTT, Medifab Co. Ltd.) solution for about two hours on days 1, 3, and 5, and the absorbance of the solution dissolved in DMSO was measured at 570 nm.
as §1

human dental pulp cells [3] = test: Mineralization ability of human dental pulp cells (alizarin red S); settings: LPS alone
Procedure: To this end, human dental pulp cells were inoculated in each 6-well dish at 1×10^5 cells/well and then cultured in a differentiation medium containing ascorbic acid (50 μg/mL) and beta-glycerophosphate (10 mM) for 7, 14, and 21 days from the next day.
as §1, with “a covered” for “a cover”
To compare the amount of mineralized matrix, the samples were fixed overnight at 4° C. with 4% paraformaldehyde (PFA), then treated with 40 mM alizarin red S (pH 4.2) at 25° C. for 30 minutes. After that, 0.5 mL of sodium dodecyl sulfate dissolved in 0.5 N hydrochloric acid was applied, and the samples were placed on a shaker for 30 minutes, and the absorbance was measured at 405 nm.

For lipopolysaccharide [LPS], the “wound healing ability as a ratio to the control group” value (human pulp cells) was “about 50 % of the control group”, the “expression of inflammatory factors TNF-α, IL-1α, IL-1β, IL-6, CXCL10, iNOS, and COX2 (ratio to GAPDH)” value (human dental pulp cells [1]) was “significantly increased” and the “viability of dental pulp cells” value (human dental pulp cells [2]) was “significant decrease”. For the same substance, the “size of the mineral nodules” value (human dental pulp cells [3]; day 21, compared to control group) was “significantly decreased” and the “amount of mineralized matrix” value (human dental pulp cells [3]; days 7, 14, and 21, compared to control group) was “significantly decreased”.

Source: patent US20250195603A1, “COMPOSITION FOR PREVENTING OR TREATING DENTAL CARIES” (HYSENSBIO CO., LTD., priority 2022, published 2025)
